# How the values were obtained:
# Conditions in all cases: organic phase and phase ratio per example
# [1] = Liquid-liquid extraction from aqueous lithium-containing solution, ICP detection: sodium;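 also: sodium measured by inductively coupled plasma optical emission spectrometry in the diluted aqueous phase left after shaking with the organic phase and phase separation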
# [2] = Liquid-liquid extraction from aqueous lithium-containing solution, ICP detection: lithium;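 also: component concentrations in the aqueous phase were measured by inductively coupled plasma optical emission spectrometry after shaking and phase separation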
# [3] = Liquid-liquid extraction from aqueous lithium-containing solution, ICP detection: potassium;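 also: analysis by ICP optical emission spectrometry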
# [4] = feed B7 (cLi 0.833, cNa 55.60, cK 5.37 g/L, pH 12.05), 26°C
# [5] = feed B3 (cLi 0.937, cNa 119.10, cK 43.03 g/L, pH 9.60)
# [6] = feed B5 (cLi 0.261, cNa 39.98, cK 7.61 g/L, pH 9.49)
# [7] = feed B2 (cLi 0.947, cNa 51.63 g/L, pH 10.77)
# [8] = feed B1 (cLi 0.807, cNa 56.12 g/L, pH 11.48)
# [9] = feed B4 (cLi 0.152, cNa 34.20, cK 2.36 g/L, pH 9.14)
compound,measurement,setting,value
"COc1ccc(C(C)=O)c(O)c1OC [Example 33, 2-hydroxy-3,4-dimethoxyacetophenone]",extraction rate for sodium ions,[1]; [4],11.94%
same,extraction rate for lithium ions,[2]; [4],50.06%
same,separation factor of Li/Na,[2]; [4],7.4
same,"cK, remaining aqueous phase R1",[3]; [4],4.95 g/L
same,extraction rate for potassium ions,[3]; [4],7.8%
"CCCCCCCCCCCCCCCCCC(=O)CC(=O)c1ccccc1 [Comparative Example 5, stearoylbenzoylmethane, reference compound]","cNa, remaining aqueous phase R1",[1]; [5],113.57 g/L
same,extraction rate for sodium ions,[1]; [5],4.64%
same,"cLi, remaining aqueous phase R1",[2]; [5],0.577 g/L
same,extraction rate for lithium ions,[2]; [5],38.42%
same,separation factor of Li/Na,[2]; [5],12.8
same,"cK, remaining aqueous phase R1",[3]; [5],41.03 g/L
"O=C(CC(=O)c1ccccc1)c1ccccc1 [Comparative Example 4, 1,3-diphenyl-1,3-propanedione, reference compound]","cNa, remaining aqueous phase R1",[1]; [6],38.12 g/L
same,extraction rate for sodium ions,[1]; [6],4.65%
same,"cLi, remaining aqueous phase R1",[2]; [6],0.186 g/L
same,extraction rate for lithium ions,[2]; [6],28.73%
same,separation factor of Li/Na,[2]; [6],8.3
same,"cK, remaining aqueous phase R1",[3]; [6],7.60 g/L
"O=C(c1ccccc1)c1cc(Cl)ccc1O [Example 38, 2-hydroxy-5-chlorodibenzophenone]",extraction rate for sodium ions,[1]; [4],8.7%
same,extraction rate for lithium ions,[2]; [4],56.06%
same,separation factor of Li/Na,[2]; [4],13.5
same,"cK, remaining aqueous phase R1",[3]; [4],4.99 g/L
same,extraction rate for potassium ions,[3]; [4],7.1%
"CC(=O)c1c(O)cccc1[N+](=O)[O-] [Example 36, 2-hydroxy-6-nitrocetophenone]",extraction rate for sodium ions,[1]; [4],8.2%
same,extraction rate for lithium ions,[2]; [4],81.1%
same,separation factor of Li/Na,[2]; [4],48
same,extraction rate for potassium ions,[3]; [4],9.3%
"CCCCCCCCOc1cc(O)c(C(=O)c2ccccc2)cc1[N+](=O)[O-] [Example 13, 4-octyloxy-5-nitro-2-hydroxydibenzophenone]",extraction rate for sodium ions,[1]; [5],5.2%
same,extraction rate for lithium ions,[2]; [5],64.7%
same,separation factor of Li/K,[2]; [5],39.9
same,separation factor of Li/Na,[2]; [5],33.2
same,extraction rate for potassium ions,[3]; [5],4.4%
2-hydroxydibenzophenone [Example 29],extraction rate for sodium ions,[1]; [7],2.32%
same,extraction rate for lithium ions,[2]; [7],73.3%
same,separation factor of Li/Na,[2]; [7],72.8
"CCC(O)C(=O)c1ccccc1 (single isomer, unassigned) [Example 5, 2-hydroxybutyrophenone]",extraction rate for sodium ions,[1]; [8],6.8%
same,extraction rate for lithium ions,[2]; [8],80.5%
same,separation factor of Li/Na,[2]; [8],57.0
"CCCCCCCCOc1c([N+](=O)[O-])cc(C(=O)c2ccccc2)c(O)c1[N+](=O)[O-] [Example 16, 4-octyloxy-2,5-dinitro-2-hydroxydibenzophenone]",extraction rate for sodium ions,[1]; [6],12.7%
same,extraction rate for lithium ions,[2]; [6],88.5%
same,separation factor of Li/K,[2]; [6],73.7
same,separation factor of Li/Na,[2]; [6],52.9
same,"cK, remaining aqueous phase R1",[3]; [6],6.89 g/L
same,extraction rate for potassium ions,[3]; [6],9.5%
"CC(=O)CC(=O)c1ccccc1 [Comparative Example 2, benzoyl acetone, reference compound]",extraction rate for sodium ions,[1]; [6],4.45%
same,extraction rate for lithium ions,[2]; [6],23.4%
same,separation factor of Li/Na,[2]; [6],6.54
same,"cK, remaining aqueous phase R1",[3]; [6],7.52 g/L
"CC(=O)CC(=O)c1ccccc1 [Comparative Example 1, benzoyl acetone, reference compound]",extraction rate for sodium ions,[1]; [5],5.43%
same,extraction rate for lithium ions,[2]; [5],53.0%
same,separation factor of Li/Na,[2]; [5],19.6
same,"cK, remaining aqueous phase R1",[3]; [5],41.79 g/L
"O=C(CC(=O)c1ccccc1)c1ccccc1 [Comparative Example 3, 1,3-diphenyl-1,3-propanedione, reference compound]","cNa, remaining aqueous phase R1",[1]; [5],115.32 g/L
same,extraction rate for sodium ions,[1]; [5],3.17%
same,"cLi, remaining aqueous phase R1",[2]; [5],0.377 g/L
same,extraction rate for lithium ions,[2]; [5],59.76%
same,separation factor of Li/Na,[2]; [5],45.3
same,"cK, remaining aqueous phase R1",[3]; [5],43.21 g/L
"CC(=O)c1cc(Cl)cc([N+](=O)[O-])c1O [Example 37, 5-chloro-2-hydroxy-3-nitrocetophenone]",extraction rate for sodium ions,[1]; [4],8.7%
same,extraction rate for lithium ions,[2]; [4],92.1%
same,separation factor of Li/Na,[2]; [4],120
same,"cK, remaining aqueous phase R1",[3]; [4],4.93 g/L
same,extraction rate for potassium ions,[3]; [4],9.2%
"Cc1ccc(C(=O)CC(=O)C(F)(F)F)cc1 [Comparative Example 6, 4,4,4-trifluoro-1-(4-tolyl)-1,3-butanedione, reference compound]",extraction rate for sodium ions,[1]; [5],3.30%
same,extraction rate for lithium ions,[2]; [5],81.11%
same,separation factor of Li/Na,[2]; [5],125.8
same,"cK, remaining aqueous phase R1",[3]; [5],42.11 g/L
"CCCCCCOc1ccc(C(=O)c2ccccc2)c(O)c1 [Example 8, 4-hyxyloxy-2-hydroxydibenzophenone]",extraction rate for sodium ions,[1]; [8],6.5%
same,extraction rate for lithium ions,[2]; [8],67.0%
same,separation factor of Li/Na,[2]; [8],29.5
"CC1=NN(c2ccccc2)C(=O)C1C(=O)c1ccccc1 (stereo not shown) [Comparative Example 7, 1-phenyl-3-methyl-4-benzoyl-5-pyrazolone, reference compound]",extraction rate for sodium ions,[1]; [5],1.09%
same,extraction rate for lithium ions,[2]; [5],1.28%
same,separation factor of Li/Na,[2]; [5],1.17
same,"cK, remaining aqueous phase R1",[3]; [5],42.96 g/L
"CC1=NN(c2ccccc2)C(=O)C1C(=O)c1ccccc1 (stereo not shown) [Comparative Example 8, 1-phenyl-3-methyl-4-benzoyl-5-pyrazolone, reference compound]",extraction rate for sodium ions,[1]; [8],4.40%
same,extraction rate for lithium ions,[2]; [8],7.43%
same,separation factor of Li/Na,[2]; [8],1.74
"COc1cccc(O)c1C(C)=O [Example 31, 2-hydroxy-6-methoxyacetophenone]",extraction rate for sodium ions,[1]; [4],9.86%
same,extraction rate for lithium ions,[2]; [4],53.42%
same,separation factor of Li/Na,[2]; [4],10.5
same,extraction rate for potassium ions,[3]; [4],3.2%
"CC(O)C(=O)c1ccccc1 (stereo not shown) [Example 3, 2-hydroxypropiophenone]","cNa, remaining aqueous phase R1",[1]; [8],52.10 g/L
same,extraction rate for sodium ions,[1]; [8],7.2%
same,"cLi, remaining aqueous phase R1",[2]; [8],0.383 g/L
same,extraction rate for lithium ions,[2]; [8],52.5%
same,separation factor of Li/Na,[2]; [8],14.3
"CC(=O)c1ccc(OCc2ccccc2)cc1O [Example 6, 4-benzyloxy-2-hydroxyacetophenone]",extraction rate for sodium ions,[1]; [8],1.4%
same,extraction rate for lithium ions,[2]; [8],34.7%
same,separation factor of Li/Na,[2]; [8],37.7
"CC(=O)c1cc(OCc2ccccc2)ccc1O [Example 32, 2-hydroxy-5-benzyloxyacetophenone]",extraction rate for sodium ions,[1]; [4],7.8%
same,extraction rate for lithium ions,[2]; [4],46.6%
same,separation factor of Li/Na,[2]; [4],10.3
same,"cK, remaining aqueous phase R1",[3]; [4],5.01 g/L
same,extraction rate for potassium ions,[3]; [4],6.7%
2-hydroxydibenzophenone [Example 2],"cNa, remaining aqueous phase R1",[1]; [8],50.23 g/L
same,extraction rate for sodium ions,[1]; [8],10.5%
same,"cLi, remaining aqueous phase R1",[2]; [8],0.362 g/L
same,extraction rate for lithium ions,[2]; [8],55.1%
same,separation factor of Li/Na,[2]; [8],10.5
"CC(=O)c1cccc([N+](=O)[O-])c1O [Example 34, 2-hydroxy-3-nitrocetophenone]",extraction rate for sodium ions,[1]; [4],8.17%
same,extraction rate for lithium ions,[2]; [4],93.28%
same,separation factor of Li/Na,[2]; [4],156
same,extraction rate for potassium ions,[3]; [4],4.5%
2-hydroxy-5-fluoroacetophenone [Example 40],"cNa, remaining aqueous phase R1",[1]; [4],49.81 g/L
same,extraction rate for sodium ions,[1]; [4],10.4%
same,"cLi, remaining aqueous phase R1",[2]; [4],0.417 g/L
same,extraction rate for lithium ions,[2]; [4],50%
same,separation factor of Li/Na,[2]; [4],8.6
same,"cK, remaining aqueous phase R1",[3]; [4],4.86 g/L
same,extraction rate for potassium ions,[3]; [4],9.5%
"CCC(O)C(=O)c1ccccc1 (single isomer, unassigned) [Example 4, 2-hydroxybutyrophenone]",extraction rate for sodium ions,[1]; [8],4.8%
same,extraction rate for lithium ions,[2]; [8],60.1%
same,separation factor of Li/Na,[2]; [8],29.8
"CC(=O)c1ccc([N+](=O)[O-])cc1O [Example 35, 2-hydroxy-4-nitrocetophenone]",extraction rate for sodium ions,[1]; [4],7.09%
same,extraction rate for lithium ions,[2]; [4],91.72%
same,separation factor of Li/Na,[2]; [4],145
same,extraction rate for potassium ions,[3]; [4],3.0%
"CCCCCCCOc1ccc(C(=O)c2ccccc2)c(O)c1 [Example 9, 4-heptoxy-2-hydroxydibenzophenone]",extraction rate for sodium ions,[1]; [8],6.2%
same,extraction rate for lithium ions,[2]; [8],60.8%
same,separation factor of Li/Na,[2]; [8],23.6
"CCCCCCCCCCCCOc1cc(O)c(C(=O)c2ccccc2)cc1Br [Example 15, 4-dodecyloxy-5-bromo-2-hydroxydibenzophenone]",extraction rate for sodium ions,[1]; [9],6.9%
same,extraction rate for lithium ions,[2]; [9],64.5%
same,separation factor of Li/K,[2]; [9],5.8
same,separation factor of Li/Na,[2]; [9],24.4
same,"cK, remaining aqueous phase R1",[3]; [9],1.80 g/L
same,extraction rate for potassium ions,[3]; [9],23.7%
"CCCCCCCCOc1ccc(C(=O)c2ccccc2)c(O)c1 [Example 10, 4-octyloxy-2-hydroxydibenzophenone]",extraction rate for sodium ions,[1]; [7],4.5%
same,extraction rate for lithium ions,[2]; [7],9.8%
same,separation factor of Li/Na,[2]; [7],2.3
"CCCCCCCCCCOc1ccc(C(=O)c2ccccc2)c(O)c1 [Example 11, 4-decyloxy-2-hydroxydibenzophenone]",extraction rate for sodium ions,[1]; [5],0.9%
same,extraction rate for lithium ions,[2]; [5],3.1%
same,separation factor of Li/Na,[2]; [5],3.5
same,"cK, remaining aqueous phase R1",[3]; [5],42.65 g/L
"CC(=O)c1cc(I)ccc1O [Example 39, 2-hydroxy-5-iodoacetophenone]",extraction rate for sodium ions,[1]; [4],10.3%
same,extraction rate for lithium ions,[2]; [4],48%
same,separation factor of Li/Na,[2]; [4],8
same,extraction rate for potassium ions,[3]; [4],8.5%
"COc1ccc(C(=O)c2ccc(OC)cc2O)c(O)c1 [Example 28, 2,2'-dihydroxy-4,4'-dimethoxydibenzophenone]",extraction rate for sodium ions,[1]; [8],3.4%
same,extraction rate for lithium ions,[2]; [8],83.6%
same,separation factor of Li/Na,[2]; [8],146.7

# Reference: EP4549424A1, “NEW LITHIUM EXTRACTING AGENT AND LIQUID ORGANIC MIXTURE THEREOF, AND METHOD FOR EXTRACTING LITHIUM BY MEANS OF EXTRACTION” (Beijing Salt Lake Technology Development Company Limited, priority 2022, dated 2024)
